Data published in patent publication US9593305B2, “Differentiation of pluripotent stem cells” (Janssen Biotech, Inc., priority 2008, dated 2017).

Tested on: H1 human embryonic stem cells
Assay: Four-step differentiation with GDF-8, RT-PCR of pancreatic endoderm markers after step 4 (Example 19)
Type: cell-based
Conditions: 100 ng/ml GDF-8 with Wnt3a or with 2.5 μM Compound 40
Procedure: The differentiation process was started three days after the cells were seeded into 6-well plates. A four-step protocol was used for the in vitro differentiation of H1 human embryonic stem cells to cells expressing markers characteristic of the pancreatic endoderm lineage. Step 1 was conducted over three days to generate cells expressing markers characteristic of the definitive endoderm lineage. On the first day of step 1, differentiation was initiated by aspirating spent culture medium and adding an equal volume of RPMI-1640 basal medium (Invitrogen; Cat #22400) with 2% Albumin Bovine Fraction V, Fatty Acid Free (FAF BSA) (Proliant Biologicals; Cat #SKU 68700) and 8 ng/ml bFGF. In one treatment group, duplicate sets of cells were treated with 100 ng/ml GDF-8 (R&D Systems; Cat #788-G8) and 20 ng/ml Wnt3a (R&D Systems; Cat #1324-WN/CF). In a second treatment group, duplicate sets of cells were treated with 100 ng/ml GDF-8 and 2.5 μM Compound 40. On the second and third day of step 1 differentiation, cells in all treatment groups were fed with RPMI-1640 containing 2% FAF BSA, 8 ng/ml bFGF and 100 ng/ml GDF-8 but without the addition of Wnt3a or Compound 40. […]
Step 4 of the differentiation protocol was carried out over three days. […] On the following day, cells in suspension culture were collected and counted. […]

Row | Compound | markers characteristic of the pancreatic endoderm lineage at the conclusion of step 4 (RT-PCR)
1 | C=CCN1CC(=O)NCCCc2cncc(c2)-c2ncnc(n2)Nc2cccc(c2)C1 [Compound 40, 14-Prop-2-en-1-yl-3,5,7,14,17,23,27-heptaazatetracyclo[19.3.1.1˜2.6˜0.1˜8,12˜]heptacosa-1(25), 2(27), 3,5,8(26), 9,11,21,23-nonaen-16-one] | expressed equivalent levels of markers characteristic of the pancreatic endoderm lineage
2 | GDF-8: growth factor GDF-8, also known as myostatin, member of the TGF-β family | expressed equivalent levels of markers characteristic of the pancreatic endoderm lineage
